Assay results reported in ChEMBL document CHEMBL1201862, “PubChem BioAssay data set” (2004).
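Following 48 hours of exposure in 96-well plates, responses at five concentrations were used to interpolate endpoints linearly. GI50 marks 50% less growth.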 Active and inactive are the calls of the source. Rule as the data show it: active = GI50 up to about 1.1 µM and inactive = higher.

Experiments:
Test in all cases: growth of human tumour cells (NCI), 48 h
[1] = test system: 786-0
[2] = test system: A498
[3] = test system: A549
[4] = test system: ACHN
[5] = test system: CAKI-1
[6] = test system: CCRF-CEM
[7] = test system: COLO 205
[8] = test system: DU-145
[9] = test system: EKVX
[10] = test system: HCC 2998
[11] = test system: HCT-116
[12] = test system: HCT-15
[13] = test system: HL-60
[14] = test system: HOP-62
[15] = test system: HOP-92
[16] = test system: HT-29
[17] = test system: Hs-578T
[18] = test system: IGROV-1
[19] = test system: K562
[20] = test system: KM12
[21] = test system: LOX IMVI
[22] = test system: M14
[23] = test system: MCF7
[24] = test system: MDA-MB-231
[25] = test system: MDA-MB-435
[26] = test system: MDA-N
[27] = test system: NCI-H226
[28] = test system: NCI-H23
[29] = test system: NCI-H460
[30] = test system: NCI-H522
[31] = test system: NCI/ADR-RES
[32] = test system: OVCAR-3
[33] = test system: OVCAR-4
[34] = test system: OVCAR-5
[35] = test system: OVCAR-8
[36] = test system: PC-3
[37] = test system: RPMI-8226
[38] = test system: RXF 393
[39] = test system: SF-268
[40] = test system: SF-295
[41] = test system: SF-539
[42] = test system: SK-MEL-28
[43] = test system: SK-MEL-5
[44] = test system: SK-OV-3
[45] = test system: SN12C
[46] = test system: SNB-19
[47] = test system: SNB-75
[48] = test system: SR
[49] = test system: SW-620
[50] = test system: T47D
[51] = test system: TK-10
[52] = test system: U-251
[53] = test system: UACC-257
[54] = test system: UACC-62
[55] = test system: UO-31
[56] = test system: MOLT-4
[57] = test system: Malme-3M
[58] = test system: SK-MEL-2

In the case of `CCOP(=O)(OCC)c1cc2cc(O)ccc2oc1=O`, the GI50 [1] is reported as > 100 µM (inactive), the GI50 [2] is reported as > 100 µM (inactive) and the GI50 [3] is reported as > 100 µM (inactive). For the same compound, the GI50 [4] was > 100 µM (inactive), the GI50 [5] was > 100 µM (inactive) and the GI50 [6] was > 100 µM (inactive). The GI50 [7] was > 100 µM (inactive), the GI50 [8] was > 100 µM (inactive) and the GI50 [9] was > 100 µM (inactive). The GI50 [10] was > 100 µM (inactive), the GI50 [11] was > 100 µM (inactive) and the GI50 [12] was > 100 µM. The GI50 [13] was > 100 µM (inactive), the GI50 [14] was > 100 µM (inactive) and the GI50 [15] was > 100 µM (inactive). For the same compound, the GI50 [16] was > 100 µM (inactive), the GI50 [17] was > 100 µM (inactive) and the GI50 [18] was > 100 µM (inactive). For the same compound, the GI50 [19] was > 100 µM (inactive), the GI50 [20] was > 100 µM (inactive) and the GI50 [21] was > 100 µM (inactive). For the same compound, the GI50 [22] was > 100 µM (inactive), the GI50 [23] was > 100 µM (inactive) and the GI50 [24] was > 100 µM (inactive). The GI50 [25] was > 100 µM (inactive), the GI50 [26] was > 100 µM (inactive) and the GI50 [27] was > 100 µM (inactive). The GI50 [28] was > 100 µM (inactive), the GI50 [29] was > 100 µM (inactive) and the GI50 [30] was > 100 µM (inactive). The GI50 [31] was > 100 µM (inactive), the GI50 [32] was > 100 µM (inactive) and the GI50 [33] was > 100 µM (inactive). The GI50 [34] was > 100 µM (inactive), the GI50 [35] was > 100 µM (inactive) and the GI50 [36] was > 100 µM (inactive). The GI50 [37] was > 100 µM (inactive), the GI50 [38] was > 100 µM (inactive) and the GI50 [39] was > 100 µM (inactive). For the same compound, the GI50 [40] was > 100 µM (inactive), the GI50 [41] was > 100 µM (inactive) and the GI50 [42] was > 100 µM (inactive). For the same compound, the GI50 [43] was > 100 µM (inactive), the GI50 [44] was > 100 µM (inactive) and the GI50 [45] was > 100 µM (inactive). For the same compound, the GI50 [46] was > 100 µM (inactive), the GI50 [47] was > 100 µM (inactive) and the GI50 [48] was > 100 µM (inactive). The GI50 [49] was > 100 µM (inactive), the GI50 [50] was > 100 µM (inactive) and the GI50 [51] was > 100 µM (inactive). For the same compound, the GI50 [52] was > 100 µM (inactive), the GI50 [53] was > 100 µM (inactive) and the GI50 [54] was > 100 µM (inactive). For the same compound, the GI50 [55] was 0.0112 µM (active).
In the case of `Cc1cc2c3c([nH]c2c2ccnc(C)c12)CCCC3`, the GI50 [1] is reported as 1.68 µM (inactive), the GI50 [3] is reported as 2.12 µM (inactive) and the GI50 [4] is reported as 4.1 µM (inactive). For the same compound, the GI50 [6] was 2.5 µM (inactive), the GI50 [7] was 1.69 µM (inactive) and the GI50 [8] was 3.23 µM (inactive). For the same compound, the GI50 [9] was 2.07 µM (inactive), the GI50 [10] was 1.95 µM (inactive) and the GI50 [11] was 1.82 µM (inactive). The GI50 [12] was 1.86 µM, the GI50 [13] was 1.69 µM (inactive) and the GI50 [14] was 1.79 µM (inactive). The GI50 [15] was 2.6 µM (inactive), the GI50 [16] was 2.46 µM (inactive) and the GI50 [17] was 1.92 µM (inactive). The GI50 [18] was 2.23 µM (inactive), the GI50 [19] was 2.07 µM (inactive) and the GI50 [20] was 2.7 µM (inactive). For the same compound, the GI50 [21] was 1.96 µM (inactive), the GI50 [22] was 1.9 µM (inactive) and the GI50 [23] was 1.43 µM (inactive). The GI50 [24] was 1.69 µM (inactive), the GI50 [25] was 1.88 µM (inactive) and the GI50 [26] was 1.78 µM (inactive). The GI50 [56] was 2.01 µM (inactive), the GI50 [57] was 1.29 µM (inactive) and the GI50 [27] was 12.1 µM (inactive). The GI50 [28] was 2.86 µM (inactive), the GI50 [29] was 1.94 µM (inactive) and the GI50 [31] was 5.13 µM (inactive). The GI50 [32] was 2.14 µM (inactive), the GI50 [33] was 2.24 µM (inactive) and the GI50 [34] was 3.65 µM (inactive). For the same compound, the GI50 [35] was 2.18 µM (inactive), the GI50 [36] was 3.78 µM (inactive) and the GI50 [37] was 1.84 µM (inactive). The GI50 [39] was 3.75 µM (inactive), the GI50 [40] was 2.12 µM (inactive) and the GI50 [41] was 1.85 µM (inactive). The GI50 [42] was 1.76 µM (inactive), the GI50 [58] was 1.62 µM (inactive) and the GI50 [43] was 1.55 µM (inactive). For the same compound, the GI50 [44] was 1.85 µM (inactive), the GI50 [45] was 1.77 µM (inactive) and the GI50 [47] was 1.87 µM (inactive). The GI50 [48] was 1.93 µM (inactive), the GI50 [49] was 1.91 µM (inactive) and the GI50 [50] was 2.15 µM (inactive). The GI50 [51] was 2.33 µM (inactive), the GI50 [52] was 1.88 µM (inactive) and the GI50 [53] was 1.81 µM (inactive). For the same compound, the GI50 [54] was 1.77 µM (inactive) and the GI50 [55] was 2.05 µM (inactive).
